We go through 4 compounds from patent US11591323B2, “Muscarinic agonists as non-steroidal and non-opioid analgesics and methods of use thereof” (Barry University, priority 2019, dated 2023).

One assay concerns the target T1, M4 muscarinic receptor (Homo sapiens, UniProt P08173).
T1 sequence (P08173 1-479): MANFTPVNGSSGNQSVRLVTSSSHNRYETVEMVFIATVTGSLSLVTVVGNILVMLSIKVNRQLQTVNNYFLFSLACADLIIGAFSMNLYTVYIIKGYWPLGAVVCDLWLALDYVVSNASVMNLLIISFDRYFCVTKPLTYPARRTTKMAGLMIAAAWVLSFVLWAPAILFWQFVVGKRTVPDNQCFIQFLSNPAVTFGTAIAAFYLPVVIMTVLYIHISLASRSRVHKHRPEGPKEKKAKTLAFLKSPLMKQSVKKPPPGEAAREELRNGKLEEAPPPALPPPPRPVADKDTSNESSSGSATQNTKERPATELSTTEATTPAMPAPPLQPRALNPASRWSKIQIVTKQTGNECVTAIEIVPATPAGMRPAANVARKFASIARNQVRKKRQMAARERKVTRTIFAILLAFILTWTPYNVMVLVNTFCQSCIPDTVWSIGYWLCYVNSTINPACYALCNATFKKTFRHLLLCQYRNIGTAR
Description: stimulation of cAMP, M4 CHO cells (M4Gs). The format is cell-based. Also noted: host or cells: CHO cells, stably transfected. The conditions noted are these: for RAi / E′MAX / τ / Δlog(τ/KA): M4Gs (↑cAMP); for RAi: Table 8, relative to carbachol; for E′MAX / τ: Table 8; for Δlog(τ/KA): Table 8, to carbachol. On the procedure: (§1) To determine level of cAMP, cells in suspension were pre-incubated for 1 h with 0.4 μM [^3H]adenine, washed, and incubated for 10 min in the presence of isobutylmethylxanthine and 10 μM forskolin. […] Incubation was ended by addition of 0.2 ml of 2.5 M HCl to the samples. Samples were applied to alumina columns (1.5 g of alumina per column), washed with 2 ml ammonium acetate (pH=7.0) and eluted from columns with 4 ml ammonium acetate and measured by liquid scintillation spectrometry. […] The incubation was stopped by addition of 0.5 ml of chloroform methanol HCl mixture (2:1:0.1). After separation of water and organic phases, 0.6 ml of water phase was applied to Dowex columns (1.5 g of Dowex per column), washed by 20 ml of 60 mM ammonium formate/5 mM sodium borate buffer and eluted from columns with 4 ml of 1M ammonium formate/0.1 formic acid buffer and measured by liquid scintillation spectrometry.
(§2) Measurements of the production of cAMP and inositol phosphates: Levels of second messengers cAMP and inositol phosphates were determined in radiochemical chromatography assays as described previously. To determine level of cAMP, cells in suspension were pre-incubated for 1 h with 0.4 μM [^3H]adenine, washed, and incubated for 10 min in the presence of isobutylmethylxanthine and 10 μM forskolin. […] Incubation was ended by addition of 0.2 ml of 2.5 M HCl to the samples. Samples were applied to alumina columns (1.5 g of alumina per column), washed with 2 ml ammonium acetate (pH=7.0) and eluted from columns with 4 ml ammonium acetate and measured by liquid scintillation spectrometry. […] For this purpose, new CHO cell lines stably expressing promiscuous G15 G-protein and M2 or M4 receptor were generated by transfection with pCMV/hygro vector and hygromycin selection. To determine the rate of formation of inositol phosphates IPX, suspended cells were pre-incubated with 0.1 μM [^3H]myo-inositol for 60 min, washed, and incubated with 10 mM LiCl for 15 min. […] The incubation was stopped by addition of 0.5 ml of chloroform methanol HCl mixture (2:1:0.1). After separation of water and organic phases, 0.6 ml of water phase was applied to Dowex columns (1.5 g of Dowex per column), washed by 20 ml of 60 mM ammonium formate/5 mM sodium borate buffer and eluted from columns with 4 ml of 1M ammonium formate/0.1 formic acid buffer and measured by liquid scintillation spectrometry.
(§3) For bi-phasic response, curves were inhibitory and stimulatory phase were fitted separately. Operational Model of Functional Agonism
(§4) [formula] where y is functional response at concentration of tested compound x, EMAX is maximal response of the system, KA is equilibrium dissociation constant and nH is slope factor. Eq. 5 was fitted to data from functional experiments. Eq. 5 was fitted to data by the two-step procedure described earlier. […] In the second step, Eq. 5 with EMAX fixed to the value determined in the first step was fitted to individual experimental data sets. Relative Intrinsic Activity

The target of the next assay is T2, M5 muscarinic receptor (Homo sapiens, UniProt P08912).
T2 sequence (P08912 1-532): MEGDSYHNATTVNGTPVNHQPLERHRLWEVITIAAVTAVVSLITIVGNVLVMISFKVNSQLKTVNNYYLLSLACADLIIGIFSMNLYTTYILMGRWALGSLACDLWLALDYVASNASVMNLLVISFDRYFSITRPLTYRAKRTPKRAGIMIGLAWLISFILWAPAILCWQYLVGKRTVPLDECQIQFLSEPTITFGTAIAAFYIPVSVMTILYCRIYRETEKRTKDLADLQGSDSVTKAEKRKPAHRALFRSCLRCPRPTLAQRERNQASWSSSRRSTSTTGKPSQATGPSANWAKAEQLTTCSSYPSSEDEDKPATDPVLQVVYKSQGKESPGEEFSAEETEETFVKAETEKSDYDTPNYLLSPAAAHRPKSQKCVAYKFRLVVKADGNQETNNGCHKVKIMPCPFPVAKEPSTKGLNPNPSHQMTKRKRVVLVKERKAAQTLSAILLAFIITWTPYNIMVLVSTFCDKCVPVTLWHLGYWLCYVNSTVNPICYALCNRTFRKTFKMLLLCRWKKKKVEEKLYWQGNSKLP
Nature of the assay: inhibition of forskolin-stimulated cAMP, M5 CHO cells (M5Gi). The format is cell-based. The note with it: for Emax: CHO; for effect on forskolin-stimulated production of cAMP: M5, non-preferential response, in words; for RAi: Table 8, relative to carbachol; for Δlog(τ/KA): Table 8, to carbachol; for Gi over Gq+G15 bias: at M5 receptors. Also noted: host or cells: CHO cells, stably transfected. On the procedure:
Since activation of phospholipase C (PLC) via M2 and M4 receptors is weak, cells were transferred with G15 G-protein to facilitate coupling.
as §1, §2, §3, §4
Muscarinic receptors are also able to stimulate non-preferential signalling pathways.

Where [1] appears, read: M5Gi (↓cAMP), Table 8, read-out: E′MAX.
[2] abbreviates: M5Gi (↓cAMP), Table 8, read-out: pEC50 (converted).
[3] abbreviates: M5Gi (↓cAMP), Table 8, read-out: pKA (converted).

Where two headings read alike, the source gives them in different places.

Compound `C1=CCN(Cc2cccs2)CC1.Cl` [Compound 6A, 1-[(thiophen-2-yl)methyl]-1,2,3,6-tetrahydropyridin-1-ium chloride] had an RAi on M4 muscarinic receptor of 0. Further, the Emax on M5 muscarinic receptor (setting [1]) was 22 ± 2%. On M5 muscarinic receptor, the “effect on forskolin-stimulated production of cAMP” value (“effect” for short) is “inhibited cAMP production” and the “Gi over Gq+G15 bias” value is on record as “about 10 fold”. The compound further registered a τ on M5 muscarinic receptor (M5Gi (↓cAMP), Table 8) of 0.31 ± 0.04. On M5 muscarinic receptor (M5Gi (↓cAMP)), the RAi is recorded as 0.021 ± 0.002 and the “Δlog(τ/KA)” value is 1.70 ± 0.21. Besides, at M5 muscarinic receptor (setting [2]), the EC50 was 21.9 µM. In addition, the Kd on M5 muscarinic receptor (setting [3]) was 31.6 µM.

As to `C[N+]1(Cc2cccs2)CC=CCC1.[I-]` (stereo not shown) [Compound 7A, 1-methyl-1-[(thiophen-2-yl)methyl]-1,2,3,6-tetrahydropyridin-1-ium iodide], the RAi at M4 muscarinic receptor is listed as 0. The Emax at M5 muscarinic receptor (setting [1]) came out at 34 ± 2%. Further, on M5 muscarinic receptor, the “effect” value was “inhibited cAMP production” and the “Gi over Gq+G15 bias” value was approximately 30 fold. At M5 muscarinic receptor (M5Gi (↓cAMP), Table 8), this compound had a τ of 0.59 ± 0.02. Also, at M5 muscarinic receptor (M5Gi (↓cAMP)), the RAi is 0.026 ± 0.003 and the “Δlog(τ/KA)” value stood at 1.67 ± 0.18. Besides, the EC50 at M5 muscarinic receptor (setting [2]) is 31.6 µM. In addition, the Kd on M5 muscarinic receptor (setting [3]) was 50.1 µM.

Take `C[N+](C)(C)CCOC(N)=O` [carbachol, reference compound]: the “E′MAX” value was 2.9 ± 0.2 fold increase at M4 muscarinic receptor and 18 ± 1 % of inhibition at M5 muscarinic receptor (M5Gi (↓cAMP), Table 8). Further, the τ on M4 muscarinic receptor is recorded as 1.9 ± 0.2; on M5 muscarinic receptor (M5Gi (↓cAMP), Table 8) it was 0.24 ± 0.03. In addition, the “Δlog(τ/KA)” value at M4 muscarinic receptor and on M5 muscarinic receptor (M5Gi (↓cAMP)) was 0 throughout. Further, at M5 muscarinic receptor, the “effect” value is on record as “inhibited forskolin-stimulated production of cAMP at nanomolar concentrations”.

On to `O=C1CCCN1CC#CCN1CCCC1` [oxotremorine, reference compound], for which, at M4 muscarinic receptor, the EC50 is 2.75 µM, the Kd was 6.31 µM, the “E′MAX” value is listed as 2.6 ± 0.2 fold increase and the τ came to 1.3 ± 0.1. Moreover, on M4 muscarinic receptor, the RAi was 3.58 ± 0.31 and the “Δlog(τ/KA)” value is −0.55 ± 0.06. At M5 muscarinic receptor, this compound gave an EC50 of 0.0708 µM, a Kd of 0.1 µM and an Emax of 22 ± 2%. Also, the τ at M5 muscarinic receptor (M5Gi (↓cAMP), Table 8) turned out to be 0.31 ± 0.03. At M5 muscarinic receptor (M5Gi (↓cAMP)), the RAi is 6.44 ± 0.67 and the “Δlog(τ/KA)” value is reported as −0.79 ± 0.06.
